Holding throughout (format): cell-based
One assay has as its system NMDA receptor. As to the kind of experiment: Whole cell patch clamp, NMDA-induced current in cultured chick spinal cord neurons. The note with it: for mean NMDA induced current: control cultures 121±16 pA. On the procedure: Cultures of dissociated spinal cord neurons were prepared as previously described (Farb, D. H., et al., J. Cell Biol., 80:651-661 (1979)). Briefly, the dissociated cells from 7-day chick embryos were plated on collagen-coated 35-mm tissue culture dishes in Eagle's minimum essential medium supplemented with 2.4 mM glutamine, 10% (v/v) heat-inactivated horse serum, 5% (v/v) chick embryo extract and antibiotics. Cultures were maintained in a humidified atmosphere of 5% CO2, 95% air at 37°. Cytarabine (1 μM) was added to the culture medium after 36 hr. of the initial plating to inhibit the proliferation of non-neuronal cells. One day later, this medium was replaced with a similar medium supplemented with 20.5 mM glucose, 19 mM KCl, and 2.5% chick embryo extract. Fresh medium was added twice weekly. Cultured neurons were used in experiments within 2-4 weeks after plating.
Experiments were carried out in 35-mm tissue culture dishes on the stage of an inverted phase contrast microscope. Whole cell currents were recorded by the whole cell variant of the patch clamp technique (Hamill, O. P., et al., Pfagers Arch. 891:85-100 (1981)). Patch electrodes had tip openings of about […] and resistances of 3-8 M.OMEGA. using an intracellular solution comprised of the following (in mM): 140 CsCl, 11 EGTA, and 10 HEPES (pH adjusted to 7.2 with CsOH). In experiments in which a high concentration of glycine was used, the intracellular solution was replaced with a low chloride (10 mM) pipette solution. This solution contained the following (in mM): 140 potassium gluconate, 10 KCl, 8 sodium gluconate, 11 EGTA, and 10 HEPES (pH adjusted to 7.2 with KOH). To prevent a marked run-down of NMDA-induced current at high NMDA concentrations, 4 mM potassium ATP was included in the intracellular solution. The bath solution contained the following (in mM): 150 NaCl, 4 KCl, 1 CaCl2, and 10 HEPES (pH adjusted to 7.2 with NaOH). No glycine was added to the solutions containing NMDA, because no additional glycine was required to obtain a robust NMDA response, and there was no effect of a maximal concentration (10 μM) of glycine on 5β3αS inhibition of the NMDA response. All experiments were performed at room temperature (23-25° C.).
Recordings were made using an Axopatch 1B patch clamp apparatus (Axon Instruments, Burlingame, Calif.). Cells with series resistances greater than 10 M.OMEGA. were rejected. After partial compensation, series resistances were between 3.5 and 6 M.OMEGA.. The holding potential was maintained at -70 mV unless otherwise noted. Currents were filtered at 1 kHz using an eight-pole Bessel filter (-3 dB) and digitized ([…]) using an on-line data acquisition system (pClamp, Axon Instruments).
Drug solutions were applied to single neurons by pressure ejection (15 psi) from seven-barrel pipettes. Seven-barrel pressure pipettes were positioned approximately […] from the neuronal soma. Under these conditions, the drug solution in the pressure pipette rapidly and effectively replaces the solution surrounding the target neurons with less than 10% dilution (Choi, D. W., et al., Nature (Lond.) 269:342-344 (1977); Chan, C. Y., et al., Life Sci., 83:2061-2069 (1983); Chan, C. Y. and Farb, D. H., J. Neurosci., 5:2365-2373 (1985)). All drugs were obtained from Sigma, with the except of AMPA hydrobromide (Research Biochemicals) and steroids (Steraloids). Stock solutions of steroids were prepared in dimethyl sulfoxide, the final concentration of which was 0.5% (v/v). To obviate the possible effects of dimethyl sulfoxide on the relevant agonist-induced currents, all other drug solutions including NMDA, kainate, AMPA and external buffer (in the pressure pipette) also contained 0.5% dimethyl sulfoxide. […]
Background: The patch-clamp technique gives a direct electrical read-out from membranes.

The target in assay [1] is T1, recombinant NMDA receptors (NR1100 and NR2A subunits) (Rattus norvegicus, UniProt P35439+Q00959).
T1 construct: expressed in transfected cells; host or cells: Xenopus laevis oocytes injected with in vitro transcribed mRNA
T1 sequence (Q00959 23-1464, other chains not shown): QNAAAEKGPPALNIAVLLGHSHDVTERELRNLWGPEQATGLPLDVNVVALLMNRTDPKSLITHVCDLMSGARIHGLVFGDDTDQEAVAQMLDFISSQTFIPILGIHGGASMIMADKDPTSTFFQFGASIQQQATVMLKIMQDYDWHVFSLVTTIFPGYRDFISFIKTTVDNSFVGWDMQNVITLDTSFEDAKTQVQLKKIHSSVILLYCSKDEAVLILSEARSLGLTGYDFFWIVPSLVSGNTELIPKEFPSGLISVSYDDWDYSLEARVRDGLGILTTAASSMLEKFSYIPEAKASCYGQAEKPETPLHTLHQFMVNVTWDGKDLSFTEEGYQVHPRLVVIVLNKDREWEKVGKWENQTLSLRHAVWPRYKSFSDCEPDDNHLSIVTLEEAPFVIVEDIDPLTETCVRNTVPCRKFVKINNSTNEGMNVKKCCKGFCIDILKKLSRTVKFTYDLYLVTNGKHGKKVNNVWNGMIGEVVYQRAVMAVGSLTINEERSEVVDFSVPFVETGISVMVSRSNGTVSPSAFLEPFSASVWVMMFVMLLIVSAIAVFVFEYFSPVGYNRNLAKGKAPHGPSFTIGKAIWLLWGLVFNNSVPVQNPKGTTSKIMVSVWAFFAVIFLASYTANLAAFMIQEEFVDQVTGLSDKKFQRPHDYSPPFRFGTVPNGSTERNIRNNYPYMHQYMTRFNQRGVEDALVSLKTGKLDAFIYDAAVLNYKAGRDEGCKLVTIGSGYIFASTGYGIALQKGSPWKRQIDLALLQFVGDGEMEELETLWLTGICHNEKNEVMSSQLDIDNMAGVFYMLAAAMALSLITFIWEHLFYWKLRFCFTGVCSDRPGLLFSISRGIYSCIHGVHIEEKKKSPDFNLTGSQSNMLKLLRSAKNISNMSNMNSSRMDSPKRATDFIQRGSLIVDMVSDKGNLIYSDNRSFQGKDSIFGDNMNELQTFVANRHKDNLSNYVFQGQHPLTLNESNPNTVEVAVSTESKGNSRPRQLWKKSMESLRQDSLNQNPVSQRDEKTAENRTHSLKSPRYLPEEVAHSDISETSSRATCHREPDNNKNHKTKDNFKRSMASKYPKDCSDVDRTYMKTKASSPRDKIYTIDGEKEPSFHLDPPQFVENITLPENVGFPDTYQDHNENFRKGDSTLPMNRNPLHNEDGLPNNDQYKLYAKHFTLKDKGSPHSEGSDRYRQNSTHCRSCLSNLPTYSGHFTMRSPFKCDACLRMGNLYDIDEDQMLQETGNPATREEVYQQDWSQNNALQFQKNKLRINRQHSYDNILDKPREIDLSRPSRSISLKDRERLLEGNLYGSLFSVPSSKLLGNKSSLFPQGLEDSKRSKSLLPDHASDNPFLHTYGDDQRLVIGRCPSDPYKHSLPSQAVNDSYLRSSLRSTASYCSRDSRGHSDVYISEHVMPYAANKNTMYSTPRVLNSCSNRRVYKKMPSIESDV
As to the kind of experiment: Two electrode voltage-clamp of Xenopus oocytes expressing recombinant NMDA receptors. On the procedure: RNA preparation. mRNA were prepared through in vitro transcription of NR1100 and NR2A cDNAs using the mMessage mMachine kit (Ambion, Tex.). NR1100 and NR2A clones were kindly provided by Dr. Zukin and Dr. Nakanishie.
Xenopus expression system. Female, oocyte positive Xenopus laevis frogs were purchased from Nasco, Inc. (WI). The frogs were kept on a 12/12 light-dark cycle and maintained on a diet of chopped calf liver every 3 days. Prior to surgery, frogs were anesthetized in a 0.15% Tricaine solution (Sigma, Mo.) for 30-45 minutes. Ovarian sections containing the follicular oocytes were removed through a lateral abdominal incision and were immediately placed in calcium-free ND96 solution (in mM):96 NaCl; 1 MgCl2; 2 KCl; 5 Hepes; 2.5 pyruvate (pH adjusted to 7.4 with NaOH). Following a 2 hr. incubation in 0.2% collagenase type II (Sigma, Mo.) at room temperature, individual defolliculated oocytes were transferred into 60×15 mm glass petri dishes containing ND96 solution (in mM): 96 NaCl; 1 MgCl2; 2 KCl; 1.8 CaCl2; 5 Hepes; 2.5 pyruvate (pH adjusted to 7.4 with NaOH). The isolated oocytes were maintained in an incubator at 18° C. On the following date, batches of 20-40 selected oocytes (Dumont stage V and VI) were injected with 50 nl of prepared RNA solution (0.5 ng of NR1 and 12 ng of NR2A mRNAs per oocyte) using an electronic microinjector (Drummond, Pa.). The injected oocytes were used for electrophysiological experiments following 4-10 day incubation at 18° C.
Electrical recording and drug application. The ion current recordings were obtained in two electrodes voltage-clamp mode using an Axoclamp-2A amplifier (Axon Instruments, Inc., CA). The microelectrodes were fabricated with a programmed puller (Sutter Instrument Co., CA) from glass capillaries (Dagan, Minn.) and filled with 3M KCl solution. The resistance of filled microelectrodes was in the range of 2.5-3.5 M.OMEGA.. The oocytes were clamped at a holding potential of -70 mV. The membrane current was filtered at 500 Hz and sampled at 100 Hz frequency. The drugs were applied using a gravity driven external perfusion system. The data acquisition and external perfusion control were done using SuperScopeII software package (GW Instruments, MA). All experiments were performed at room temperature of 22-24° C.
The degree of modulation of the amino acid response by steroids, the percent change, was defined at (I'/I-1)×100%, where I and I' are respectively the agonist-induced currents in the absence and presence of steroid. Throughout, results are expressed as mean±SEM; statistical comparison of groups was carried out using Student's t test.
A general note: Two-electrode voltage clamp is typically applied to oocytes expressing channels or transporters.

Assay [2] has as its system NMDA-induced cell death in primary neuronal cultures of rat hippocampal formation. As to the kind of experiment: Trypan blue exclusion, NMDA-induced cell death (excitotoxicity) in primary hippocampal cultures. The note with it: Rattus norvegicus, 200 μM 17β-estradiol hemisuccinate. The text has this: Trypan blue exclusion was used to evaluate the ability of derivatives of pregnenolone sulfate to inhibit NMDA-induced cell death in primary neuronal cultures of rat hippocampal formation.
Mixed neuronal and glial cultures of hippocampal tissue were derived from fetal rats on day 18 of embryonic development and were maintained in culture for 16 to 24 days (Brewer, G. J., Brain Res., 494: 65-74 (1989)). Care for the animals used in this study was in accordance with institutional guidelines. Hippocampal tissue from Sprague-Dawley rat pups was collected immediately following removal from dams sacrificed with CO2 on embryonic day 18. Cells were dissociated by trituration in Ca^2 +/Mg^2 + free Hank's basic salt solution supplemented with 4.2 mM bicarbonate, 1 mM sodium pyruvate, 20 mM HEPES, 3 mg/ml BSA, and pelleted by centrifugation (900 rpm, 3 min). The resulting pellet was suspended in DMEM supplemented with 2.4 mg/ml BSA, 26.5 mM sodium bicarbonate, 1 mM sodium pyruvate, 20 mM HEPES, 10% FBS, 100 units/ml penicillin, 100 μg/ml streptomycin, and a modification of Brewers B16 defined components (with […] vitamin B12 and without catalase, glutathione, and superoxide dismutase) (Pike, C. J., et al., Neurosci. 13:1676-87 (1993)) and plated onto poly-L-lysine coated 24 well culture dishes (Nunclon) at a density of 15,000 cells/cm^2 and were maintained in a humidified incubator in 5% CO2 /95% air at 37° C. After 5 days in vitro, nonneuronal cell division was inhibited by exposure to 2×10^-6 M cytosine arabinoside for 48 hrs. Cells were subsequently maintained in medium identical to that used for platting without BSA or FBS.
The number of living neurons was determined by assessing the ability of cells to exclude trypan blue 16 hrs. after the addition of drug solutions to the medium of individual culture wells (Dawson, V. L., et al., Proc. Natl. Acad. Sci. USA, 88:6368-6371 (1991)). Drugs were introduced to cultures in 100 μl of conditioned media, collected from experimental cultures just prior to treatment, to a final volume of 0.5 ml. NMDA was dissolved in DMEM at concentrations of 0-5 mM so that addition of 10 μl yielded final concentrations of 0-100 μM. MK-801, a positive control, was dissolved in DMEM at a concentration of 1 mM so that addition of 5 μl yielded a final concentration of 10 μM. Control cultures were exposed only to an equivalent volume of DMEM, and concentration of DMSO (0.5%). The concentrations of the pregnenolone sulfate derivatives were as follows: 10-100 μM 5β3αS, 100 μM 5β3α hemisuccinate and 200 μM 17β-estradiol hemisuccinate.
After exposure to drugs, the medium was replaced by 0.1 M sodium phosphate buffer/0.4% trypan blue. Cell death was assessed by counting the number of trypan blue positive and negative neurons in five high power fields per culture well with an inverted phase contrast microscope using both bright field and phase settings. Cell death is expressed as the ratio of the number of trypan blue positive to total number of cells counted in each well×100 (percent cell death).

Several values for one entry are separate records, joined by “and”; a condition that tells them apart may be missing. Identical values can stand only once. Counter-ions that a name gives are not always drawn. Like-named read-outs stand apart in the source and are kept apart here.

The values that follow come from patent US6083941A, “Inhibition of NMDA receptor activity by pregnenolone sulfate derivatives” (Trustees of Boston University, priority 1998, dated 2000).

The EC50 is the concentration needed to bring the measured effect to its halfway point. What is called inhibition is the relative decrease from the control value, in per cent.

Consider `CCN1C(=O)C=CC1=O` [NEM, N-ethylmaleimide, reference compound], for which the “mean NMDA induced current” value with NMDA receptor (5 min 4 mM DTT, then 2 min 4 mM DTT plus 300 μM NEM) amounted to 367±82 pA. As for `CC(=O)[C@H]1CC[C@H]2[C@@H]3CC[C@H]4C[C@@H](OS(=O)(=O)O)CC[C@]4(C)[C@H]3CC[C@]12C` [5α3βS, 5α-pregnan-3β-ol-20-one sulfate, reference compound], the “inhibition of the NMDA-induced current” value in the assay on NMDA receptor (steroid concentration not given) is 1±2.6%. With `O[C@H](CS)[C@H](O)CS` (racemic) [DTT, dithiothreitol, reference compound], the “NMDA current, % of control” value in the assay with NMDA receptor (4 mM DTT, after 180 seconds of exposure) worked out at 273±19%. Also, the “mean NMDA induced current” value in the assay with NMDA receptor (after approximately an hour of exposure to 4 mM DTT) amounted to 326±82 pA. On to `CN[C@H](CC(=O)O)C(=O)O` [NMDA, N-methyl-D-aspartate], for which, in the assay with NMDA receptor (in the absence of 5β3αS), the “NMDA nH” value is recorded as 1.01. Further, the “NMDA Imax” value in the assay with NMDA receptor (in the absence of 5β3αS, normalized to the peak current induced by 100 μM NMDA) was 2.56. Further, the EC50 with NMDA receptor (read-out: NMDA EC50, in the absence of 5β3αS) came out at 156 µM; in assay [1] it was 62 ± 4 µM.

As for `NCCCNCCCCNCCCN` [spermine, reference compound], the “potentiation of the NMDA induced current” value was 136±33% in the assay on NMDA receptor (100 μM spermine (maximal)) and 67±21% in the assay with NMDA receptor (250 μM spermine). Regarding `CCCCC/C=C\C/C=C\C/C=C\C/C=C\CCCC(=O)O` [arachidonic acid, reference compound], the “potentiation of the 30 μM NMDA response” value in the assay on NMDA receptor (10 μM arachidonic acid alone) is recorded as 120±35%. In the assay with NMDA receptor (10 μM arachidonic acid in the presence of 100 μM PS), the “potentiation of the NMDA response” value is reported as 158±22%. For `C[C@]12CC[C@H](OS(=O)(=O)O)CC1=CC[C@@H]1[C@@H]2CC[C@]2(C)C(=O)CC[C@@H]12` [DHEAS, Dehydroepiandrosterone sulfate, reference compound], the “potentiation of the NMDA response” value with NMDA receptor (concentration not in the sentence (100 μM in Table 1)) is 28.8±8.8% and 28.8%. Consider `C[C@]12CC[C@@H]3c4ccc(OC(=O)CCC(=O)O)cc4CC[C@H]3[C@@H]1CC[C@@H]2O` [17β-estradiol hemisuccinate], for which the inhibition at 200 µM in assay [2] (read-out: inhibition of the cell death induced by chronic NMDA) was 40%; in assay [2] (read-out: inhibition of the cell death produced by short term exposure to NMDA), 65%.
